In PMC10579241, “Impact of trifluoromethyl and sulfonyl groups on the biological activity of novel aryl-urea derivatives: synthesis, in-vitro, in-silico and SAR studies” (Scientific Reports, 2023):
Converted amounts (≈) assume the structure as drawn. Read-outs that look alike come from different tables or passages of the source. Marks after values point to notes of the source that are not given here.

How the values were obtained:
[1] = tested on: Candida albicans; assay: Agar well diffusion, C. albicans; assay type: cell-based
[2] = tested on: Bacillus mycoides; assay: microbe, parasite or virus in culture; assay type: cell-based
[3] = tested on: Escherichia coli; assay: Agar well diffusion, E. coli; assay type: cell-based; conditions: Escherichia coli, read-out: Inhibition zones diameter
[4] = tested on: hepatocellular carcinoma cell line (HePG2); assay: cells; assay type: cell-based; conditions: Homo sapiens, 48 h; for mortality at 100 µg/mL: 100 μg/mL
[5] = tested on: colon cancer (HCT116); assay: cells; assay type: cell-based; conditions: Homo sapiens; for mortality at 100 µg/mL: HCT-116, 48 h, 100 μg/mL
[6] = tested on: skin cancer (A431); assay: cells; assay type: cell-based; conditions: Homo sapiens, A-431, 100 μg/mL, 48 h
[7] = tested on: osteosarcoma cell line (HOS); assay: cells; assay type: cell-based; conditions: Homo sapiens, 48 h; for mortality at 100 µg/mL: 100 μg/mL; for IC50: MTT
[8] = tested on: human lung carcinoma (A549); assay: cells; assay type: cell-based; conditions: for mortality at 100 µg/mL: A549, 48 h, 100 μg/mL
[9] = tested on: pancreatic cancer cell line (PACA2); assay: cells; assay type: cell-based; conditions: Homo sapiens, PaCa-2, 48 h; for mortality at 100 µg/mL: 100 μg/mL; for IC50: MTT
[10] = tested on: prostate cancer (PC3); assay: cells; assay type: cell-based; conditions: Homo sapiens, 48 h; for mortality at 100 µg/mL: 100 μg/mL
[11] = tested on: PACA2; assay: DNA damage, comet assay, PACA2; assay type: cell-based, human
[12] = tested on: CDKN2A; assay: qRT-PCR, CDKN2A in PACA2 cells; assay type: cell-based, human; conditions: versus negative untreated sample
[13] = tested on: normal skin fibroblast cell line (BJ1); assay: cells; assay type: cell-based; conditions: Homo sapiens, Skin fibroblast, MTT, 48 h
[14] = tested on: PACA2; assay: DNA fragmentation assay, PACA2; assay type: cell-based, human
[15] = tested on: PALB2; assay: qRT-PCR, PALB2 in PACA2 cells; assay type: cell-based, human; conditions: versus negative untreated sample
[16] = tested on: Bacillus mycoides; assay: microbe, parasite or virus in culture; assay type: cell-based; remark: listed apart in the source
[17] = in vitro; assay type: cell-based; conditions: human, BJ1 normal skin fibroblast cells, 100 μg/mL
[18] = tested on: Escherichia coli; assay: MIC by serial dilution (agar wells), E. coli; assay type: cell-based
[19] = tested on: Candida albicans; assay: MIC by serial dilution (agar wells), C. albicans; assay type: cell-based
[20] = Bacillus mycoides, read-out: Inhibition zones diameter
[21] = Candida albicans, read-out: Inhibition zones diameter
[22] = read-out: Minimum inhibition concentration (MIC)
[23] = 0.00488 mg/mL, 150 µL in DMSO, 15 mm agar well
[24] = 0.00975 mg/mL, 150 µL in DMSO, 15 mm agar well
[25] = 0.0195 mg/mL, 150 µL in DMSO, 15 mm agar well
[26] = 0.0391 mg/mL, 150 µL in DMSO, 15 mm agar well
[27] = 0.0781 mg/mL, 150 µL in DMSO, 15 mm agar well
[28] = 0.1563 mg/mL, 150 µL in DMSO, 15 mm agar well
[29] = 0.3125 mg/mL, 150 µL in DMSO, 15 mm agar well
[30] = 0.625 mg/mL, 150 µL in DMSO, 15 mm agar well
[31] = 1.25 mg/mL, 150 µL in DMSO, 15 mm agar well
[32] = 2.50 mg/mL, 150 µL in DMSO, 15 mm agar well
[33] = 5.00 mg/mL, 150 µL in DMSO, 15 mm agar well
[34] = 10.0 mg/mL, 150 µL in DMSO, 15 mm agar well

## CNC(C)C1CCC(N)C(OC2C(N)CC(N)C(OC3OCC(C)(O)C(NC)C3O)C2O)O1 (centres unmarked) [Gentamicin, reference compound]
[1]; Candida albicans, C. albicans, reference antibiotic 10 mcg, read-out: Inhibition zones diameter
  zone of inhibition at 10 µg/disc: 12 ± 0.89 mm
[2]; [20]
  zone of inhibition at 10 µg/disc: 11 ± 0.43 mm
[3]; E. coli, reference antibiotic 10 mcg
  zone of inhibition at 10 µg/disc: 12 ± 0.18 mm

## Cc1ccc(NC(=O)Nc2ccc(OC(F)(F)F)cc2)cc1 [Compound 14, 1-(p-Tolyl)-3-[4-(trifluoromethoxy)phenyl]urea]
[4]
  mortality at 100 µg/mL: 65.3 ± 1.44%
[5]
  mortality at 100 µg/mL: 5.6 ± 0.47%
[6]
  mortality at 100 µg/mL: 2.3 ± 0.66%
[1]; [21]
  zone of inhibition at 10000 µg/mL: 17 ± 0.27 mm
[2]; [20]
  zone of inhibition at 10000 µg/mL: 15 ± 0.25 mm
[7]
  mortality at 100 µg/mL: 100%
  IC50: 61.6 ± 0.81 µM
[8]
  mortality at 100 µg/mL: 38.5 ± 1.41%
[9]
  mortality at 100 µg/mL: 47.2 ± 1.47%
[3]
  zone of inhibition at 10000 µg/mL: 17 ± 0.81 mm
[10]
  mortality at 100 µg/mL: 45.3 ± 1.28%

## Cc1ccc(NC(=O)Nc2cc(C(F)(F)F)cc(C(F)(F)F)c2)cc1 [Compound 15, 1-[3,5-Bis(trifluoromethyl)phenyl]-3-(p-tolyl)urea]
[11]
  DNA damaged cells % (mean ± SEM): 21.00 ± 1.29^a %
[11]; of 400 cells analyzed
  Class 0 (no tail), number of cells: 316
  Class 1 (tail length < diameter of nucleus), number of cells: 31
  Class 2 (tail length between 1 and 2 × the diameter of nucleus), number of cells: 25
  Class 3 (tail length > 2 × the diameter of nucleus), number of cells: 28
  No. of cells, Comets: 84
[12]
  CDKN2A gene expression level: significantly reduced
[5]
  mortality at 100 µg/mL: 49.6 ± 1.23%
[13]
  IC50: 94.4 ± 0.71 µM
[1]; [21]
  zone of inhibition at 10000 µg/mL: 24 ± 1.22 mm
[2]; [20]
  zone of inhibition at 10000 µg/mL: 23 ± 0.35 mm
[14]
  Change (DNA fragmentation versus untreated cells): 20.20
[14]; IC50 concentration, 24 h
  DNA fragmentation % M ± SEM: 32.3 ± 0.74^ab %
[14]; doxorubicin = 0.0
  Inhibition: 12.22
[7]
  IC50: 37.3 ± 0.37 µM
[8]
  mortality at 100 µg/mL: > 50%
[15]
  PALB2 gene expression level: significantly reduced
[9]
  mortality at 100 µg/mL: > 75%
  IC50: 82.5 ± 0.21 µM
[3]
  zone of inhibition at 10000 µg/mL: 24 ± 0.68 mm
[10]
  mortality at 100 µg/mL: > 75%

## COc1cc(NC(=O)NS(=O)(=O)c2ccc(C)cc2)cc(OC)c1 [Compound 10, N-[(3,5-Dimethoxyphenyl)carbamoyl]-4-methylbenzenesulfonamide]
[5]
  mortality at 100 µg/mL: 37.5 ± 1.12%
[6]
  mortality at 100 µg/mL: 23.5 ± 0.97%
[1]; [21]
  zone of inhibition at 10000 µg/mL: 21 ± 0.32 mm
[2]; [20]
  zone of inhibition at 10000 µg/mL: 24 ± 0.87 mm
[7]
  mortality at 100 µg/mL: 12.3 ± 1.21%
[8]
  mortality at 100 µg/mL: 34.2 ± 1.2%
[9]
  mortality at 100 µg/mL: > 50%
[3]
  zone of inhibition at 10000 µg/mL: 22 ± 0.39 mm
[10]
  mortality at 100 µg/mL: 35.2 ± 0.89%

## Cc1ccc(S(=O)(=O)NC(=O)Nc2ccccc2C(F)(F)F)cc1 [Compound 11, 4-Methyl-N-[(2-{trifluoromethyl}phenyl)carbamoyl]benzenesulfonamide]
[16]; read-out: Inhibition zone
  zone of inhibition at 4.88 µg/mL: 0 mm
  zone of inhibition at 9.75 µg/mL: 0 mm
  zone of inhibition at 19.5 µg/mL: 0 mm
  zone of inhibition at 39.1 µg/mL: 15 mm
  zone of inhibition at 78.1 µg/mL: 16 mm
  zone of inhibition at 156.3 µg/mL: 16 mm
  zone of inhibition at 312.5 µg/mL: 17 mm
  zone of inhibition at 625 µg/mL: 17 mm
  zone of inhibition at 1250 µg/mL: 18 mm
  zone of inhibition at 2500 µg/mL: 22 mm
  zone of inhibition at 5000 µg/mL: 24 mm
  zone of inhibition at 10000 µg/mL: 27 mm
[16]; [22]
  MIC: 39.1 mg/L (≈ 109 µM)
[5]
  mortality at 100 µg/mL: > 75%
[5]; HCT-116, MTT, 48 h
  IC50: 161.6 ± 0.24 µM
[6]
  mortality at 100 µg/mL: 10.5 ± 1.13%
[17]
  mortality at 48 h, 100 µg/mL: 19.2 ± 0.57%
[1]; C. albicans, 200 μL of 10 mg/mL in DMSO in 15 mm holes, overnight 37 °C
  Inhibition zones diameter: 32 ± 0.17 mm
[1]; [21]
  zone of inhibition at 10000 µg/mL: 32 mm
[2]; B. mycoides, 200 μL of 10 mg/mL in DMSO in 15 mm holes, overnight 37 °C
  Inhibition zones diameter: 31 ± 0.52 mm
[2]; [20]
  zone of inhibition at 10000 µg/mL: 31 mm
[7]
  mortality at 100 µg/mL: 44.2 ± 1.11%
[8]; MTT, 48 h
  IC50: 149.3 ± 0.23 µM
[18]; [23]
  zone of inhibition at 4.88 µg/mL: 0 mm
[18]; [24]
  zone of inhibition at 9.75 µg/mL: 0 mm
[18]; [25]
  zone of inhibition at 19.5 µg/mL: 0 mm
[18]; [26]
  zone of inhibition at 39.1 µg/mL: 0 mm
[18]; [27]
  zone of inhibition at 78.1 µg/mL: 0 mm
[18]; [28]
  zone of inhibition at 156.3 µg/mL: 16 mm
[18]; [29]
  zone of inhibition at 312.5 µg/mL: 18 mm
[18]; [30]
  zone of inhibition at 625 µg/mL: 20 mm
[18]; [31]
  zone of inhibition at 1250 µg/mL: 22 mm
[18]; [32]
  zone of inhibition at 2500 µg/mL: 24 mm
[18]; [33]
  zone of inhibition at 5000 µg/mL: 28 mm
[18]; [34]
  zone of inhibition at 10000 µg/mL: 30 mm
[18]; [22]
  MIC: 156 mg/L (≈ 436 µM)
[19]; [23]
  zone of inhibition at 4.88 µg/mL: 0 mm
[19]; [24]
  zone of inhibition at 9.75 µg/mL: 0 mm
[19]; [25]
  zone of inhibition at 19.5 µg/mL: 0 mm
[19]; [26]
  zone of inhibition at 39.1 µg/mL: 0 mm
[19]; [27]
  zone of inhibition at 78.1 µg/mL: 16 mm
[19]; [28]
  zone of inhibition at 156.3 µg/mL: 17 mm
[19]; [29]
  zone of inhibition at 312.5 µg/mL: 20 mm
[19]; [30]
  zone of inhibition at 625 µg/mL: 22 mm
[19]; [31]
  zone of inhibition at 1250 µg/mL: 24 mm
[19]; [32]
  zone of inhibition at 2500 µg/mL: 25 mm
[19]; [33]
  zone of inhibition at 5000 µg/mL: 26 mm
[19]; [34]
  zone of inhibition at 10000 µg/mL: 28 mm
[19]; [22]
  MIC: 78.1 mg/L (≈ 218 µM)
[9]
  IC50: 80.7 µM
[3]
  zone of inhibition at 10000 µg/mL: 27 ± 0.58 mm
[10]; MTT
  IC50: 114.7 ± 0.21 µM

## Cc1ccc(NC(=O)Nc2ccccc2C(F)(F)F)cc1 [Compound 17, 1-(p-Tolyl)-3-[2-(trifluoromethyl)phenyl]urea]
[4]
  mortality at 100 µg/mL: 71.2 ± 1.45%
[4]; MTT
  IC50: 199.3 ± 0.82 µM
[5]
  mortality at 100 µg/mL: 7.5 ± 0.92%
[6]
  mortality at 100 µg/mL: 3.1 ± 1.14%
[1]; [21]
  zone of inhibition at 10000 µg/mL: 15 ± 0.42 mm
[2]; [20]
  zone of inhibition at 10000 µg/mL: 18 mm
[7]
  mortality at 100 µg/mL: > 50%
[8]
  mortality at 100 µg/mL: 7.3 ± 0.35%
[9]
  mortality at 100 µg/mL: > 50%
[3]
  zone of inhibition at 10000 µg/mL: 16 ± 0.54 mm
[10]
  mortality at 100 µg/mL: > 50%
